In US4389343A, “Immunopotentiating peptides from thymus” (Hoffmann-La Roche Inc., priority 1981, dated 1983):
Where no end group is shown, it is not given here.

How the values were obtained:
[1] = isoelectric point by preparative isoelectric focusing; type: physicochemical
Method: It is preferred that the compound of formula II be separated conventionally from Thymosin Fraction 5 using preparative isoelectric focusing, with the proteins recovered therefrom being purified by HPLC. By such a procedure, for example, 1.2 grams of Thymosin Fraction 5 provided 16 mg of thymosin α1, 16 mg of thymosin β4 and 1 mg of the compound of formula II. The isoelectric point for the compound of formula II was pH 4.62.
Any reverse phase hydrophobic resin may be employed in a conventional manner in the HPLC isolation. Among such resins there are included, for example, a hydrocarbon (C8 to C18) on any inert matrix such as silica gel, glass, polysaccharides and the like, which matrix is inert to the eluting agent being employed. The preferred resin is a straight chain C18 hydrocarbon bonded to silica gel or glass beads. […]
A sample of thymosin Fraction 5 (1.2 g) was dissolved in 100 ml of 2% ampholine for separation in the pH range 4-6 and filtered through a 0.45 μm molecular pore filter. […] The focused gel was cut with a grid into 30 sections, each of which was eluted on a small column with 5 ml of H2 O. The pH of eluate was determined at 0° C. […] Fractions (0.7 ml) were collected every 2 min and aliquots (5 μl of a 1:25 dilution) of each aliquot analyzed by direct injection into the borate buffer line of the fluorescamine detector, because the automatic column monitoring was off-scale.

[2] = tested on: Candida albicans ATCC 10231; test: protective activity against opportunistic infections in immunosuppressed mice; type: in vivo; details: female ddY mice infected with Candida albicans 24 hours after last treatment
Method: The compounds of formula I were tested for protective activity against opportunistic infections in immunosuppressed mice. Female ddY mice (6 weeks old) weighing about 25 g were pretreated daily for eight days with 5-fluorouracil (5-FU) (25 mg/kg/day, i.p.) and with thymosin α1or with compounds of formula I (i.p.) at varying dosages. The mice were then infected with Candida albicans ATCC 10231 (1×10^5 cells or more) at 24 hours after the last treatment. One control group was administered 5-FU and saline solution and a second control group received neither 5-FU nor a thymic polypeptide prior to infection with Candida albicans.

[3] = 4 μg/kg/day i.p. daily for eight days with 5-FU 25 mg/kg/day i.p.
[4] = 40 μg/kg/day i.p. daily for eight days with 5-FU 25 mg/kg/day i.p.
[5] = 0.4 μg/kg/day i.p. daily for eight days with 5-FU 25 mg/kg/day i.p.

Thymosin β8: polypeptide isolated from calf thymus Fraction 5, 4,518 daltons, 39 amino acid residues, NH2-terminus acetyl alanine (ADKPDLGEINSFDKAKLKKTETQEKNTLPTKETIEQEKQ; thymosin beta-8 N-terminal acetyl; UniProt P21752 2-40, looked up, fragment)
isoelectric point [1]: 4.62 pH

Thymosin α1: acidic peptide containing 28 amino acid residues isolated from Thymosin Fraction 5, U.S. Pat. No. 4,079,127 (SDAAVDTSSEITTKDLKEKKEVVEEAEN; ends and bridges not checked; UniProt P01252 2-29, looked up)
Survivors at Day 8 [2, 3]: 7/10
Survivors at Day 15 [2, 3]: 6/10
Survivors at Day 8 [2, 4]: 7/10
Survivors at Day 15 [2, 4]: 7/10

Thymosin β4: peptide isolated from Thymosin Fraction 5 containing 44 amino acid residues
Survivors at Day 8 [2, 5]: 7/10
Survivors at Day 15 [2, 5]: 6/10
Survivors at Day 8 [2, 3]: 5/10
Survivors at Day 15 [2, 3]: 5/10
Survivors at Day 8 [2, 4]: 1/10
Survivors at Day 15 [2, 4]: 1/10

Thymosin β9: polypeptide from fresh frozen calf thymus, identical to thymosin β8 plus --Ala--LysOH at the COOH-terminus, 4,717 daltons, 41 amino acids (ADKPDLGEINSFDKAKLKKTETQEKNTLPTKETIEQEKQAK; not fully specified; Thymosin beta-9; UniProt P21752 2-42, looked up)
isoelectric point [1]: 5.14 pH
